Columns and labels:
Type in all cases: in vivo, mouse
Synaptophysin = Synaptophysin immunostaining in hippocampus; conditions: CA1/2 hippocampus, after 15 months of treatment, between experimental groups
Description: (§1) The study was performed on Ts65Dn male, using the administration of CHF 5074 in the diet (375 ppm, equivalent to approximately 60 mg/kg/day).
(§2) The treatment started at 2 to 3 months of age and it was chronically administered in the diet for 15 months, until 19 months of age.
(§3) Treatment groups were: • Wild-type mice receiving standard diet (N=20) • Wild-type mice receiving CHF 5074-medicated diet (375 ppm, approximately 60 mg/kg/day) (N=20) • Ts65Dn mice receiving standard diet (N=20) • Ts65Dn mice receiving CHF 5074-mediacted diet (375 ppm, approximately 60 mg/kg/day) (N=20)
(§4) Brain morphology was assessed by immunohistochemistry, immunofluorescence and quantitative morphometry and microdensitometry according to Imbimbo B P et al., J Alzheimer Dis 2010; 20:159-173; Sivilia S et al., BMC Neurosci 2013; 14: 44; and Guidi S et al., Brain 2014; 137: 380-401, all of which are incorporated herein by reference in their entireties. The following proteins were investigated:
Synaptophysin. It is a pre-synaptic vesicle membrane protein known to mediate vesicle release in hippocampus;
(§5) FIG. 10 illustrates main markers of synaptic transmission in the CA1/2 regions of the hippocampus after 15 months of treatment (19 months of age). […] Panel B reports the variation of immunostaining for the glutamate transporter VGLUT1 with a substantial decrease in Ts65Dn mice compared to wild-type animals. […]

Ts65Dn mice [1] = assay: Y-maze test, spatial learning and memory
Description: as §1, §2, §3
(§6) Animals were provided by Jackson Laboratory, Bar Harbor, Me., USA) in small cohorts. Ts65Dn segmental male trisomic mice were used. Ts65Dn mice were compared with diploid controls from the same litters.
Spatial learning and memory were assessed with the Y-maze test according to Stewart S et al., J Alzheimer Dis 2011; 26: 105-126, which is incorporated herein by reference in its entirety.
Animals were tested in a single trial Y maze task, to measure arm entries (A) and alternation (B). The percentage of spontaneous alternations is defined as (total alternations/total arm entries-2)×100.

Aβ40 and Aβ42 [2] = assay: Plasma Aβ40 and Aβ42 by ELISA
Description: as §1, §2, §3
(§7) Aβ40 and Aβ42 were measured by ELISA in plasma and brain extracts (IBL kit for mouse Aβ40/Aβ42);
FIGS. 6 A and B illustrates the plasma levels of Aβ40 and Aβ42 peptides in animals after 15 months of treatment (19 months of age). There was a substantial increase in Aβ40 and Aβ42 plasma levels in Ts65Dn mice compared to wild-type animals.

APP mRNA = APP mRNA expression by real-time PCR in hippocampus and basal ganglia; conditions: wild-type animals, medicated diet for 15 months
Description: Molecular biology markers were measured in hippocampus and basal ganglia by real-time PCR, according to Massella A et al., BMC Neuroscience 2012; 13: 12; and D'Intino G et al., J Neuroendocrinol 2011; 23: 778-790, both of which are incorporated herein by reference in their entireties.

[3] = test system: Glial fibrillary acidic protein (GFAP); assay: Reactive astrocytes, GFAP immunoreactivity in hippocampus; conditions: CA1/2 hippocampus, aged Ts65Dn mice, diet 375 ppm, vs Ts65Dn on standard diet
Description: as §1, §2, §3, §4
Glial fibrillary acidic protein (GFAP) as astrocyte marker in hippocampus;

[4] = test system: Amyloid precursor protein intracellular domain (AICD); assay: AICD immunoreactivity in CA1/2 hippocampal neurons; conditions: CA1/2 hippocampal regions, Ts65Dn mice, p<0.0001
Description: Amyloid precursor protein intracellular domain (AICD) (cleavage sites C83 and C99) in hippocampus.
Quantification was carried out by counting the percentage of neurons having AICD-positivity.

[5] = test system: Vesicular GABA transporter (VGAT); assay: VGAT immunostaining in hippocampus; conditions: CA1/2 hippocampus, Ts65Dn mice, after 15 months of treatment
Description: as §1, §2, §3, §4
Vesicular GABA transporter (VGAT), as marker of GABAergic synapses in hippocampus;
as §5

[6] = test system: Ionized calcium binding adaptor molecule 1 (Iba1); assay: Activated microglia, Iba1 immunoreactivity in hippocampus; conditions: CA1/2 hippocampus, aged Ts65Dn mice, diet 375 ppm, vs Ts65Dn on standard diet
Description: as §1, §2, §3, §4
Ionized calcium binding adaptor molecule 1 (Iba1), as microglia marker in hippocampus;

Aβ40 and Aβ42 [7] = assay: Brain (cerebral cortex) Aβ40 and Aβ42 by ELISA; conditions: after 15 months of treatment (19 months of age)
Description: as §1, §2, §3, §7
FIGS. 7 A, B, C, and D illustrates the brain (cerebral cortex) levels of Aβ40 and Aβ42 in animals after 15 months of treatment (19 months of age). Results are expressed as pmol/gr proteins (panels A and B), and as fmol/g wet tissue (panels C and D). There was a substantial increase in Aβ40 and Aβ42 brain levels in Ts65Dn mice compared to wild-type animals.

Ts65Dn mice [8] = assay: CatWalk computerized gait analysis, locomotion
Description: as §1, §2, §3, §6
Locomotion deficits were assessed with the CatWalk technology (gait analysis) according to Faizi M et al., Neurobiol Dis 2011; 43: 397-413, which is incorporated herein by reference in its entirety.
The print area of front and hind paws is presented, as corrected according to the individual animal body weight. […] CHF 5074 treatment normalized this gait parameter.

[9] = test system: total APP/Aβ40/Aβ42 peptides; assay: Intraneuronal APP immunohistochemistry and microdensitometry in cerebral cortex; conditions: Ts65Dn mice treated vs control transgenic animals
Description: Intraneuronal APP was measured by immunohistochemistry and computerized microdensitometry (Chemicon clone 22C11) in cerebral cortex;

[10] = wild-type and Ts65Dn mice, after 15 months of treatment (19 months of age)

Compound: O=C(O)C1(c2ccc(-c3ccc(Cl)c(Cl)c3)c(F)c2)CC1 [CHF 5074, 1-(3′,4′-dichloro-2-fluorobiphenyl-4-yl)cyclopropanecarboxylic acid]
- synaptophysin levels (Synaptophysin): no significant differences
- spontaneous alternation in Y maze (spatial memory) (Ts65Dn mice [1]; CHF 5074 in diet 375 ppm (approx. 60 mg/kg/day), tested after 6, 9 and 15 months of treatment): progressively normalized
- spontaneous alternation in Y maze compared to wild-type mice (Ts65Dn mice [1]; diet 375 ppm, after 15 months of treatment): not significantly different
- spatial memory deficit (study summary) (Ts65Dn mice [1]; prolonged oral treatment): attenuated
- plasma level of Aβ40 (Aβ40 and Aβ42 [2]; [10]): further increased
- plasma level of Aβ42 (Aβ40 and Aβ42 [2]; [10]): further increased
- significance of the increase in plasma Aβ42 (Aβ40 and Aβ42 [2]; wild-type animals, after 15 months of treatment): significant
- APP mRNA levels (APP mRNA): slightly but significantly increased
- GFAP-immunoreactivity (reactive astrocytes) [3]: substantial reduction
- increase in percentage of AICD-positive neurons [4]: significantly attenuated
- increase of immunostaining for the GABA transporter VGAT [5]: completely reversed
- Iba1-immunoreactivity (activated microglia) [6]: substantial reduction
- brain Aβ40 levels (Aβ40 and Aβ42 [7]): did not modify significantly
- brain Aβ42 levels (Aβ40 and Aβ42 [7]): did not modify significantly
- hind paw print area (gait parameter, corrected for body weight) (Ts65Dn mice [8]; diet 375 ppm, after 15 months of treatment (19 months of age)): normalized
- locomotion deficit (study summary) (Ts65Dn mice [8]; prolonged oral treatment): completely reversed
- intracellular immunoreactivity of total APP/Aβ40/Aβ42 peptides in cortical neurons [9]: significant decrease
